# Measured values from patent US11712443B2, “17α-monoesters and 17α,21-diesters of cortexolone for use in the treatment of tumors” (COSMO TECHNOLOGIES LTD., priority 2014, dated 2023).
# Experiments:
# stimulated PBMC = test: IC50 on stimulated PBMC (actively dividing cells); details: for Therapeutic Index = IC50 resting PBMC/IC50 cancer cell: PBMC Stim, healthy lymphocyte, Table IV; for Therapeutic Index = IC50 stimulated PBMC/IC50 cancer cell, AVERAGE: average across the 7 cancer cell lines, Table VII
# Method: The IC^50 in PBMC were tested in 2 different activation status:
# stimulated—actively dividing cells
# IC50 of the compounds was determined on fresh cells isolated from human blood (PBMC). The compounds toxicity was determined as follow: Therapeutic Index=Safety/Potency=IC50 stimulated PBMC_/IC50 cancer cell
# MDA-MB-231 = test: In vitro proliferation / cytotoxic assay on breast cancer cells (cell titer glo); type: cell-based
# Method: (§1) For the cytotoxic assay: cells seeded in 96 well flat bottom culture plates in media containing charcoal stripped serum. After 24 hours test compounds were added to the cells. DMSO was used as the vehicle negative control and RU486 as the positive control. After 72 hours incubation cell were harvested, lysed and viability determined using the cell titer glow assay for viability.
# HT29 = test: In vitro proliferation, larger cancer cell line panel; details: Homo sapiens, HT-29, read-out: in vitro proliferation IC50
# Caspase 3/7 = test: Caspase activity assay in MiaPaca2 cells; type: cell-based; details: 8, 24, 48 hours, FIG. 11
# Method: To better analyze the phenomenon the enzymatic activity of Caspase 8 (initiator caspase for Extrinsic Pathway) and Caspase 9 (initiator caspase for Intrinsic Pathway) and of Caspases 3 and 7 (effector caspases) were measured.
# After 8, 24, & 48 hours incubation with test compounds, cells were lysed in buffer containing the caspase 3/7 or 8 or 9 substrate and a stable luciferase in proprietary buffers. The lysates were transferred to white opaque plates before measuring luminescence in a Tecan S afire instrument. Parallel plates treated identically, were used to determine viable cells. All caspase activities were corrected for the number of viable cells.
# [1] = test system: MiaPaca-2 pancreatic tumor xenograft; test: Human pancreatic tumor xenograft in nude mice, subcutaneous treatment; type: in vivo; details: for average tumor size increase: Cyproterone Acetate treatment groups (7.4 mg/kg and 37 mg/kg) SC daily 28 days
# Method: The test was carried out comparing the anti-tumor activity of cortexolone 17α-benzoate at two different dosages (8.0 mg/kg, corresponding approximately at 230 μM, and 40 mg/kg, corresponding approximately at 1150 μM), versus the vehicle (i.e. 0.4% (v/v) tween 80 and 0.5% (w/v) carboxymethylcellulose in normal saline) and versus the comparator Cyproterone Acetate at two different dosages (7.4 mg/kg and 37 mg/kg).
# 1×10^6 MiaPaca-2 cells suspended in matrigel were subcutaneously injected into 6 week old athymic nude mice.
# The treatment with the tested compounds, with the vehicle and with the comparative compound, was initiated after the tumor volume has reached 50 mm3 after transplantation. All compounds were injected 100 μL/mouse subcutaneously of low dose solution (approximately 230 μM) or 100 μL/mouse of high dose solution (approximately 1150 μM) of cortexolone 17α-benzoate, vehicle and cyproterone acetate, respectively. Compounds and controls were administered subcutaneously daily for 28 days.
# Tumors were measured every 4 days with a digital caliper.
# The results are plotted in FIG. 1 as average change in tumor volume relative to the start of treatment. Tumor volume was calculated according to the formula 0.5236(r1)^2(r2) where r1<r2.
# The test was carried out comparing the anti-tumor activity of cortexolone 17α-valerate-21-propionate (CB-03-10) at two different dosages (approximately 8.6 mg/kg and 43 mg/kg) versus the vehicle (i.e. 0.4% (v/v) tween 80 and 0.5% (w/v) carboxymethylcellulose in normal saline) and versus the comparator Cyproterone Acetate at two different dosages (7.4 mg/kg and 37 mg/kg).
# The treatment with the tested compound, with the vehicle and with the comparative compound was initiated after the tumor has reached a volume of 50 mm3 after implantation, injecting subcutaneously 100 μL/mouse of low dose solution (approximately 230 μM) or 100 μL/mouse of high dose solution (approximately 1150 μM) of cortexolone 17α-valerate-21-propionate (CB-03-10), vehicle and cyproterone acetate, respectively. Compounds and controls were administered subcutaneously daily for 28 days.
# The results are plotted in FIG. 2 as average change in tumor volume relative to the start of treatment. Tumor volume was calculated according to the formula 0.5236(r1)^2(r2) where r1<r2.
# CPA a well-known anti-androgen was used as control. Briefly 1×10^6 MiaPaca2 cells suspended in matrigel were subcutaneously (SC) injected into 6 week old male athymic nude mice. Tumors were measured every 4 days with a digital caliper. Tumor volume was calculated according to the formula: 0.5236(r1)2(r2) where r1<r2. Treatment with CB-03-10 and controls compounds was initiated after the tumor had reached 50 mm3. Compounds diluted in DMSO/2-hydroxypropyl b-cyclodextrin (vehicle) were injected subcutaneously (SC) daily (100 μL/mouse) at the concentration of 40 mg/Kg daily for 28 consecutive days.
# Panc1 = test: ATP-dependent proliferation/viability assay (Cell Titer Glo), 3 days; details: IC50 stimulated PBMC / IC50 Panc1; Experiment 1; 0 = higher toxicity in PBMC than in the cancer cell lines
# LNCaP = test: as above; details: Homo sapiens, LNCaP, 72 h, LNCaP (AR+); 10 nM DHT; 3 days; Examples 1-2 Experiment 1, sigmoidal dose response fit
# Method: The experiment was performed to test and to define the antitumor activity in vitro of cortexolone 17α-benzoate on LNCaP (AR+) and PC3 (AR^−), representative of Prostatic cancer cell lines with Androgen Receptor (AR) positive or negative expression, respectively. The experimental method consisted of: • 1. […] After 24 hours, 10 nM DHT (dihydrotestosterone) with or without anti-androgen compounds, or DMSO vehicle (negative control) was added to the cultures. • 3.
# The experiment was performed to test and to define antitumor activity in vitro of cortexolone 17α-valerate-21-propionate (CB-03-10) on LNCaP (AR+) and PC3 (AR^−), representative of Prostatic cancer cell lines with AR positive or negative expression, respectively. The experimental method consisted of: • 1. […] After 24 hours, 10 nM DHT (dihydrotestosterone) with or without anti-androgen compounds, or DMSO vehicle (negative control) was added to the cultures. • 3.
# [2] = test system: LNCaP prostate cancer xenograft; test: Human prostate cancer xenograft in nude mice, oral treatment; type: in vivo
# Method: 3×10^6 LNCaP cells suspended in matrigel were subcutaneously injected (on the right flank) into 6 week old male athymic nude mice. Tumors were measured as described above. Treatment with CB-03-10 and controls compounds was initiated after the tumor had reached 50 mm3. […] Oral dosing was daily (100 mg/Kg in 200 μL/mouse) for 28 consecutive days. Results were plotted as average change in tumor volume relative to the start of treatment.
# MCF7 = test: In vitro proliferation / cytotoxic assay on breast cancer cells (cell titer glo); details: MCF7 (ER+PR+GR+/-); 72 hours; Table VI prints no unit (same values in Table III in μM)
# Method: as §1
structure (smiles),measurement,setting,value
"CCCC(=O)OC1(C(=O)CO)CCC2C3CCC4=CC(=O)CC[C@]4(C)C3=CC[C@@]21C (single isomer, unassigned) [CB-03-04]",Therapeutic Index = IC50 resting PBMC/IC50 cancer cell,stimulated PBMC,1
same,"Therapeutic Index = IC50 stimulated PBMC/IC50 cancer cell, AVERAGE",stimulated PBMC,4
CCC(=O)O[C@]1(C(=O)CO)CC[C@H]2[C@@H]3CCC4=CC(=O)CC[C@]4(C)[C@H]3CC[C@@]21C [CB-03-01],Therapeutic Index = IC50 resting PBMC/IC50 cancer cell,stimulated PBMC,1
same,"Therapeutic Index = IC50 stimulated PBMC/IC50 cancer cell, AVERAGE",stimulated PBMC,0
CCCC(=O)OCC(=O)[C@@]1(OC(=O)CCC)CCC2C3CCC4=CC(=O)CC[C@]4(C)C3CC[C@@]21C (some centres unmarked) [CB-03-03],Therapeutic Index = IC50 resting PBMC/IC50 cancer cell,stimulated PBMC,1
same,"Therapeutic Index = IC50 stimulated PBMC/IC50 cancer cell, AVERAGE",stimulated PBMC,4
"CCCCC(=O)O[C@]1(C(=O)CO)CC[C@H]2[C@@H]3CCC4=CC(=O)CC[C@]4(C)[C@H]3CC[C@@]21C [CB-03-05, cortexolone 17α-valerate]",IC50,"MDA-MB-231; MDA-MB-231 (ER-PR-GR++), TNBC, 72 hours, Table VI prints no unit (same values in Table III in μM)",Not active
same,in vitro proliferation IC50,"MDA-MB-231; MDA-MB-231, Table III",not active
same,IC50,HT29,530 µM
same,Therapeutic Index = IC50 resting PBMC/IC50 cancer cell,stimulated PBMC,1
same,"Therapeutic Index = IC50 stimulated PBMC/IC50 cancer cell, AVERAGE",stimulated PBMC,3
same,Caspase 3/7 induction / caspase activation profile,Caspase 3/7,does not show a good profile for caspase activation
"CC(=O)O[C@]1(C(C)=O)CC[C@H]2[C@@H]3C=C(Cl)C4=CC(=O)[C@@H]5C[C@@H]5[C@]4(C)[C@H]3CC[C@@]21C [Cyproterone Acetate, Cyproterone acetate, reference compound]",average tumor size increase,[1]; Example 5,12 fold
same,average tumor size increase,[1]; Example 6,≥ 12 fold
same,Median survival,"[1]; Example 22, 40 mg/Kg SC daily 28 days, vehicle 60 days",40 days
same,Therapeutic Index = IC50 resting PBMC/IC50 cancer cell,stimulated PBMC,1
same,"Therapeutic Index = IC50 stimulated PBMC/IC50 cancer cell, AVERAGE",stimulated PBMC,1
same,TI on Stimulated PBMC,Panc1,1
same,IC50,LNCaP,29 µM
"CNC(=O)c1ccc(N2C(=S)N(c3ccc(C#N)c(C(F)(F)F)c3)C(=O)C2(C)C)cc1F [Enzalutamide, reference compound]",prostate tumor size increase after treatment was stopped,"[2]; oral 100 mg/Kg daily 28 days, after stop",8 fold
same,statistical significance of tumor growth versus vehicle,"[2]; oral gavage, FIG. 16",statistically significant only on days 14 and 25
"Nc1ccn([C@@H]2O[C@H](CO)[C@@H](O)C2(F)F)c(=O)n1 [Gemcitabine, reference compound]",Caspase 3/7 induction / caspase activation profile,Caspase 3/7,not seen until the 48 hours mark
"CC#C[C@]1(O)CC[C@H]2[C@@H]3CCC4=CC(=O)CCC4=C3[C@@H](c3ccc(N(C)C)cc3)C[C@@]21C [RU486, Mifepristone, reference compound]",IC50,MCF7,Not active
